According to US20240294464A1, “SYNTHESIS OF RESTRAINED COMPLEXING AGENTS” (Genentech, Inc., priority 2021, published 2024):

Test: stability of compound 1 in prep-HPLC fractions
Type: physicochemical
Conditions: prep-HPLC fractions (0.01% TFA aqueous solution / acetonitrile); needs to freeze immediately for lyophilization
From the text: The crude compound 1 was purified by prep-HPLC (Mobile phase A: 0.01% TFA aqueous solution (v/v); Mobile phase B: Acetonitrile) and the purified product was lyophilized to give compound 1 with 98 A % HPLC purity as a white solid in 51% yield over two steps. (Note: The compound 1 in prep-HPLC fractions is not stable, and it needs to freeze immediately for lyophilization. The residual TFA in solid is 0.1 equiv to E)

Structure (SMILES): O=C(O)CN(CC(=O)O)[C@@H]1CCCC[C@H]1N(CC(=O)O)Cc1ccc(CC(=O)Oc2c(F)c(F)cc(F)c2F)cc1 [compound 1, 2,2′-(((1R,2R)-2-((carboxymethyl)(4-(2-oxo-2-(2,3,5,6-tetrafluorophenoxy)ethyl)benzyl)amino)cyclohexyl)azanediyl)diacetic acid]
- stability in prep-HPLC fractions: not stable
